Laboratory results taken from patent US10787643B2, “Methods, kits, and compositions for stem cell self-renewal” (Stowers Institute for Medical Research, priority 2007, dated 2020).

Assays:
LSK Flk2− cells [1] = test: Ex vivo culture of sorted LSK Flk2− cells with PTEN and/or GSK-3β inhibitors; assay type: cell-based, mouse; conditions: for Expansion of LSK cells compared to control (photographs): 17 and 23 days culture, 1 μM CHIR99021, 200 nM BpV(pic); for Expansion of LSK Flk2− cells compared to media without either inhibitor: 28 days culture, inhibitor added individually
Experimental: LSK or LSK Flk2^− cells were sorted into 96-well U-bottom tissue culture plates at 100 cells/well with 200 μl media/well. Cells were incubated at 37° C., 5% O2, 5% CO2 (balance N2) for the indicated number of days. One-half total volume of media (see Table 1, below for the base media) was carefully pipetted from the top and replaced with fresh media every other day.
One hundred LSK Flk2^− cells were sorted from wild-type (C57Bl/6) mice and cultured in (1) media, (2) media+1 μM CHIR99021 (a GSK-3β inhibitor, a gift from Dr. Sheng Ding), (3) media+200 nM Dipotassium Bis-peroxo(picolinato)oxovanadate (BpV(pic), a PTEN inhibitor, available from Calbiochem, Cat. No. 203705), (4) media+1 μM CHIR99021+200 nM BpV(pic), (5) media+200 nM Shikonin (also a PTEN inhibitor, available from Calbiochem, Cat. No. 565850), and (6) media+200 nM Shikonin+1 μM CHIR99021. […] Cells were cultured as described above. […] Cells were examined at 17 days of culture (FIG. 3B, original magnification 100×) and 23 days (FIG. 3C, original magnification 40×).
LSK Flk2^− cells at 28 days culture in the indicated media conditions were examined (FIG. 3D, original magnification 200×).
FACS analysis of 28 day LSK Flk2^− cells cultured in media+BpV(pic)+CHIR99021 (FIG. 3E) was performed. Cells were pre-gated on live, lineage negative cells.
Fold expansion of LSK Flk2^− cells after 28 days culture in (1) media, (2) media+BpV(pic), (3) media+CHIR99021, and (4) media+CHIR99021+BpV(pic) were analyzed.
Cells cultured for 9 days in (1) media, (2) media+BpV(pic) (200 nM), (3) media+CHIR99021 (100 nM), and (4) media+CHIR99021 (100 nM)+BpV(pic) (200 nM) were re-sorted for LSK Flk2^− cells, and fold expansion of LSK Flk2^− cells after 9 days culture in the indicated conditions was determined (FIG. 3I).
FACS analysis was performed on 9 day LSK Flk2^− cells cultured in media+BpV(pic) (200 nM)+CHIR99021 (100 nM) (FIG. 3J). Cells were pre-gated on live, lineage negative cells.

LSK Flk2− cells [2] = test: Transplantation of cultured sorted LSK Flk2− cells into lethally irradiated CD45.1+ recipient mice with competitor cells; assay type: in vivo, mouse; conditions: 1000 re-sorted LSK Flk2− cells from 28 day cultures; peripheral blood at 4 weeks post-transplant
Excerpt: Cells were harvested from the wells prior to transplantation by pipetting up and down several times before transferring to a fresh tube. Residual was then collected by adding more media and repeating. Cells were washed in DMEM (Invitrogen, Cat. No. 31053) without phenol red and added to the appropriate number of whole bone marrow rescue cells from a congenic donor (for 200,000 rescue cells+1,000 re-sorted LSK Flk2^− cells (FIGS. 3F-3H) or the non-adherent product of 10 days culture of 100 LSK Flk2^− cultured cells (FIGS. 3I-3K) per mouse as indicated). […]
Repopulation was measured at 4 weeks post-transplant by collection of periperal blood, red blood cell lysis, and staining of CD45.1 (recipient) compared to CD45.2 (donor) engraftment using antibodies purchased from eBiosciences (FITC conjugated CD45.2 (Cat. No. 11-0454-85) and PE-Cy5 conjugated CD45.1 (Cat. No. 15-0453-82)). […] Multi-lineage reconstitution was determined by CD3, B220 (for lymphoid) and Gr1, Mac-1 (for myeloid), as described above.
Cells cultured for 28 days in (1) media, (2) media+BpV(pic), (3) media+CHIR99021 and (4) media+CHIR99021 (1 μM)+BpV(pic) (200 nM) were re-sorted for LSK Flk2^− cells. […] At 4 weeks post-transplant, peripheral blood was analyzed for donor (FIG. 3G) and multi-lineage (FIG. 3H) engraftment. […]

LSK Flk2− cells [3] = test: Bone marrow MNC culture in HSC expansion media with CHIR99021 and PI3K inhibitor, FACS for LSK Flk2− expansion (FIG. 21); assay type: cell-based, mouse; conditions: for Expansion of LSK Flk2− cells: bone marrow MNCs cultured 10 days in ST media, 250 nM CHIR99021 or indicated concentrations of NVP-BEZ235
Experimental: Bone marrow MNCs were cultured for 10 days in an HSC expansion media with and without 250 nM CHIR99021, along with the indicated concentrations of PI3K inhibitor ([…]. et al. Identification and characterization of NVP-BEZ235, a new orally available dual phosphatidylinositol 3-kinase/mammalian target of rapamycin inhibitor with potent in vivo antitumor activity. (Molecular cancer therapeutics 7, 1851-1863 (2008)), and then subjected to FACS analysis to determine expansion of LSK Flk2^- cells. The inventors have developed a defined culture system utilizing only two cytokines, stem cell factor (SCF) and thrombopoietin (Tpo) (ST media), which have been shown previously to support HSC expansion in vitro (Zhang, […]. Murine hematopoietic stem cells change their surface phenotype during ex vivo expansion. Blood 105, 4314-4320 (2005)). […] Also, the ability of CHIR99021 to enhance expansion was negated by PI3K inhibition (FIG. 21).

LSK Flk2− cells [4] = test: Competitive repopulation after 14 days ex vivo expansion of sorted HSCs or unsorted MNCs with or without CHIR99021; assay type: in vivo, mouse; conditions: long-term engraftment, competitor cells present
Experimental: For the experimental results shown in FIG. 13A, sorted LSK Flk2^− cells and unsorted MNCs containing a known quantity of LSK Flk2^− cells (CD45.2^+) were cultured for 14 days in ST media with and without CHIR99021. The cultured product of 100 sorted or 5 unsorted LSK Flk2^− cells per mouse were transplanted into lethally irradiated recipients (CD45.1^+). 5 freshly isolated, unsorted LSK Flk2^− cells per mouse were transplanted into a separate group. 1×10^5 freshly isolated CD45.1^+ competitor/radioprotective cells were also added per mouse. Peripheral blood analysis of recipients at 16 weeks post-transplant depicts % chimerism.
For the experiments set forth in this Example, a particular HSC expansion media was used. […]
Bone marrow cells were harvested from C57Bl/6 (CD45.2) mice and made into a single cell suspension by gently drawing through a 22 g needle several times. […] Cells were counted and a fraction of mononuclear cells (MNCs) were stained for lineage markers using CD3, CD4, CD8, B220, IgM, Mac-1, Gr1, and Ter119 antibodies along with Kit, Sca-1, and Flk2 for mouse HSC analysis or CD34 and CD38 for human HSC analysis. […] Frequency of putative HSCs (lineage negative, Sca-1^+, Kit^+, […] for mouse or CD34^+, CD38^− cells for human) was determined by analyzing >3×10^5 cells per sample independently in triplicate. […]

LSK Flk2− cells [5] = test: Transplantation of ex vivo expanded MNCs without competitor/radioprotective cells, with serial (secondary) transplantation; assay type: in vivo, mouse
Experimental: For this experiment, MNCs with a known quantity of putative HSCs were cultured with and without CHIR99021 for 14 days. After 14 days, the cellular product of these cultures was transplanted into lethally-irradiated recipients at a dosage corresponding to an original input into culture of MNCs containing 5 LSKF^− cells per mouse. Freshly isolated MNCs containing either 5 or 500 LSKF− cells were also transplanted into 2 additional lethally irradiated groups of mice. No rescue/competitor bone marrow cells were included.
At 16 weeks post-transplant, mice transplanted with MNCs containing 5 or 500 LSKF^− cells freshly isolated or cultured for 14 days described in FIGS. 6A-6D were sacrificed and bone marrow isolated. A secondary transplantation was performed on new groups of lethally irradiated mice by transplanting 1×10^6 bone marrow cells from the original transplant group per mouse. At 4 weeks post-transplant, peripheral blood was collected from each transplant recipient and donor-derived repopulation was determined.

## Cc1c[nH]c(-c2cnc(NCCNc3ccc(C#N)cn3)nc2-c2ccc(Cl)cc2Cl)n1 [CHIR99021]
LSK Flk2− cells [1]
  Expansion of LSK cells compared to control (photographs): greater expansion
  Expansion of LSK Flk2− cells compared to media without either inhibitor: significant expansion
LSK Flk2− cells [2]
  Mice showing >1% engraftment: 4/8
LSK Flk2− cells [3]
  Expansion of LSK Flk2− cells: increased the expansion
LSK Flk2− cells [4]; 100 sorted putative HSCs cultured 14 days with CHIR99021 (250 nM)
  Average repopulation: 12.3%
LSK Flk2− cells [4]; unsorted MNC cultures, 14 days with CHIR99021 (250 nM)
  Average repopulation: 64.8%
LSK Flk2− cells [5]; 16 weeks post-secondary transplant, MNCs containing 5 LSK Flk2− cells expanded 14 days in ST media with CHIR99021, no competitor cells
  Donor reconstitution: 90.6±4.8%
LSK Flk2− cells [5]; 16 weeks post-secondary transplantation, expanded MNCs with 5 putative HSCs vs fresh MNCs with 500
  Long-term repopulation equivalent to a greater dose of fresh, unexpanded cells: 100 fold

## Cn1c(=O)n(-c2ccc(C(C)(C)C#N)cc2)c2c3cc(-c4cnc5ccccc5c4)ccc3ncc21 [NVP-BEZ235]
LSK Flk2− cells [3]; PI3K inhibitor added together with 250 nM CHIR99021, 10 days
  Ability of CHIR99021 to enhance expansion of LSK Flk2− cells: negated
LSK Flk2− cells [3]
  Expansion of LSK Flk2− cells: decreased the ability of LSK Flk2^− cells to expand in a dose-dependent manner

## Dipotassium Bis-peroxo(picolinato)oxovanadate [BpV(pic)]
LSK Flk2− cells [1]
  Expansion of LSK cells compared to control (photographs): greater expansion
  Expansion of LSK Flk2− cells compared to media without either inhibitor: significant expansion
LSK Flk2− cells [2]
  Mice showing >1% engraftment: 0/10
